This note sets out measurements from US7999132B2, “Anthranilic acid derivative or salt thereof” (Toyama Chemical Co., Ltd., priority 2004, dated 2011).

The experiment concerns MMP-13. Nature of the experiment: MMP-13 Production Inhibition Test. The experiment is classed as cell-based, human. The conditions noted are these: Homo sapiens; 30 μmol/L; SW1353 cells stimulated with IL-1β 10 ng/mL; MMP-13 in culture supernatant by ELISA 16 hours after stimulation; read-out: Inhibition rate (%) at 30 μmol/L. On the procedure: MMP-13 Production Inhibition Test
6.8×10^3 human cartilage derived cell line SW1353 cells were suspended in 100 μL of Dulbecco modified Eagle's medium supplemented with 10% fetal calf serum, plated on 96-well plates and cultured for 3 days. After the culture medium was changed to Dulbecco modified Eagle's medium containing 0.2% lactalbumin hydrolysate and the cells were cultured for 6 hours, […] were added and then IL-1β was added to obtain the final concentration of 10 ng/mL 1 hour later. 16 hours after the stimulation, supernatant was collected and the amount of MMP-13 in the culture supernatant was determined with an ELISA kit (Amersham). The inhibition rate was calculated from the amount of MMP-13 in the presence of a test compound assuming that the amount of MMP-13 was 100% in the absence of the test compound.
On the technique in general: ELISA stands for enzyme-linked immunosorbent assay.
Regarding `O=C(Nc1cc(CCc2ccccc2)ccc1C(=O)O)c1ccc(N2CCCCC2)nc1` [Example 525, 4-phenethyl-2-(6-(piperidin-1-yl)pyridine-3-carboxamido)benzoic acid], the inhibition at 30 µM was 87%. The same measure for `O=C(Nc1cc(-c2ccccc2)ccc1C(=O)O)c1cc(-c2ccccc2)ncn1` [Example 349, 4-Phenyl-2-(6-phenylpyrimidine-4-carboxamido)benzoic acid]: 95%. Take `COc1cccc(Oc2ccc(C(=O)O)c(NC(=O)c3ccccc3)c2)c1` [Example 543, 2-(Benzamido)-4-(3-methoxyphenoxy)benzoic acid]: the inhibition at 30 µM stood at 85%. As to `O=C(Nc1cc(-c2cc(Cl)ccc2Cl)ccc1C(=O)O)c1ccccc1` [Example 425, 2-(Benzamido)-4-(2,5-dichlorophenyl)benzoic acid], the inhibition at 30 µM was 99%.

As to `O=C(O)c1ccc(CCc2ccccc2)cc1NC(=O)c1ccccc1C(F)(F)F` [Example 255, 4-Phenethyl-2-(2-(trifluoromethyl)benzamido)benzoic acid], the inhibition at 30 µM came out at 91%. Consider `COc1ccc(-c2ccc(C(=O)O)c(NC(=O)c3ccccc3)c2)cc1OC` [Example 411, 2-(Benzamido)-4-(3,4-dimethoxyphenyl)benzoic acid], for which the inhibition at 30 µM turned out to be 81%. Consider `O=C(Nc1cc(Oc2ccc(C(F)(F)F)cc2)ccc1C(=O)O)c1ccccc1` [Example 570, 2-(Benzamido)-4-(4-(trifluoromethyl)phenoxy)benzoic acid], for which the inhibition at 30 µM was determined as 98%. For `O=C(Nc1cc(Oc2ccccc2)ccc1C(=O)O)c1ccc2c(c1)OCO2` [Example 80, 2-(Benzo[1,3]dioxole-5-carboxamido)-4-phenoxybenzoic acid] the value was 92%; for `O=C(Nc1cc(/C=C/c2cc(F)cc(F)c2)ccc1C(=O)O)c1ccccc1` [Example 130, 2-(Benzamido)-4-((E)-2-(3,5-difluorophenyl)vinyl)benzoic acid], 96%; for `O=C(Nc1cc(Oc2cccc(Cl)c2)ccc1C(=O)O)c1ccccc1` [Example 551, 2-(benzamido)-4-(3-chlorophenoxy)benzoic acid], 86%. For `O=C(Nc1cc(-c2cccc(Cl)c2)ccc1C(=O)O)c1ccc2c(c1)OCO2` [Example 163, 2-(Benzo[1,3]dioxole-5-carboxamido)-4-(3-chlorophenyl)benzoic acid] the value was 98%. On to `O=C(Nc1cc(-c2ccccc2)ccc1C(=O)O)c1ccc(F)c(F)c1` [Example 450, 2-(3,4-Difluorobenzamido)-4-phenylbenzoic acid], for which the inhibition at 30 µM was determined as 98%. For `O=C(Nc1cc(Oc2ccccc2)ccc1C(=O)O)c1ccc(-n2cccc2)cc1` [Example 495, 4-phenoxy-2-(4-(1H-pyrrol-1-yl)benzamido)benzoic acid] the value was 99%; for `O=C(Nc1cc(Oc2ccccc2)ccc1C(=O)O)c1ccc(F)cc1` [Example 89, 2-(4-Fluorobenzamido)-4-phenoxybenzoic acid], 94%; for `O=C(Nc1cc(-c2ccccc2)ccc1C(=O)O)c1ccc(O)cc1` [Example 399, 2-(4-Hydroxybenzamido)-4-phenylbenzoic acid], 79%. The same measure for `Cc1cccc(C(=O)Nc2cc(CCc3ccccc3)ccc2C(=O)O)c1C` [Example 262, 2-(2,3-Dimethylbenzamido)-4-phenethylbenzoic acid]: 93%; for `O=C(Nc1cc(-c2ccccc2)ccc1C(=O)O)c1ccccc1F` [Example 282]: 75%; for `O=C(Nc1cc(Oc2ccc(F)cc2)ccc1C(=O)O)c1ccccc1` [Example 560, 2-(Benzamido)-4-(4-fluorophenoxy)benzoic acid]: 85%. The same measure for `CC(=O)c1cccc(C(=O)Nc2cc(Oc3ccccc3)ccc2C(=O)O)c1` [Example 505, 2-(3-Acetylbenzamido)-4-phenoxybenzoic acid]: 82%.
